What was measured:
[1] = tested on: underactive bladder models; assay: Residual urinary volumes and bladder capacities in underactive bladder models (cystometry); type: in vivo, rat; details: 0.01 mg/kg, oral, underactive bladder model rats, versus normal group
Description: The underactive bladder models were constructed in accordance with the following procedure. Female Wistar rats (8 to 9 weeks age) were anesthetized by intraperitoneal administration of Somnopentyl (40 mg/kg), followed by dorsal shaving, and fixed in abdominal positions. Each of the dorsal areas was disinfected with chlorhexidine gluconate (5% hibitane liquid). The waist area was median-incised to expose the spinal column. After excision of the fifth lumbar spinous process, a silicone rubber was inserted into the sixth lumbar direction from a hole bored by a mini drill. For the purpose of avoiding infections, after completion of the surgical operation, benzylpenicillin potassium (25000 U/0.25 mL/body) was added dropwise to the incised area. The muscle and skin of the incised area were sutured with silk threads, and iodine tincture was applied to the sutured area. After the operation, maintenance of voiding was carried out by manual compressions three times daily. For the purpose of avoiding infections, potassium penicillin G (1.25 units/body) was administered subcutaneously. More than 5 days prior to cystometric evaluation, a catheter for cystometrogram was indwelled in the bladder. Anesthesia with sodium pentobarbital (40 mg/kg by intraperitoneal administration) and incision along the midline of the abdomen were carried out, followed by incision of the apex of the bladder. A catheter for cystometrogram filled with physiological saline was inserted into the bladder from a hole of the apical area, and fixed by ligation using silk suture threads. […]
The rats were anesthetized with ether and housed in a Bollmann cage 2 weeks after the construction of the models. To the front end of each of the bladder catheters, a pressure transducer via a three-way cock was connected, and the intravesical pressure was recorded using a strain pressure amplifier•recorder. […]
[…] After 1 hr, physiological saline was perfused into the bladder at a flow rate of 2 mL/h and voiding parameters (bladder capacity and residual urinary volume) were measured. […] Voiding parameters were calculated for each cystometry. […]

normal rats = assay: Blood pressures and heart rates in normal rats; type: in vivo, rat; details: oral; for effect on the blood pressure / increase in heart rate: 0.3 mg/kg
Description: The blood pressures and heart rates of female Wistar rats were measured in accordance with the following procedure. On the day of measurement, indwelling of catheters for blood pressure•heart rate measurement was carried out under anesthesia with ether. The back of the neck of each rat was incised; a feeding catheter (Atom Medical Corporation) filled with heparinized physiological saline was introduced from the back of the neck; the catheter was inserted into the common carotid artery; and the surgical incision was closed. The measurements were carried out in a Bollmann cage under the conscious state, and the evaluations were carried out after confirming that the individual parameters were stabilized. After confirming the stabilization of blood pressure and heart rate, the test compound which was prepared using injectable water containing equimolar NaOH was orally administered at a dose of 5 mL/kg.
The catheter drawn from the back of the neck was connected to a pressure transducer (DX-200, NIHON KOHDEN CORP.), and the blood pressures and heart rates were measured using an amplifier for pressure measurement (Gould Instrument). The blood pressures and heart rates were recorded using a recorder (LINEARCORDERWR3320, GRAPHTEC). For each individual, rates of increase and decrease in average blood pressure and heart rate before administration and 30, 60, 120, and 180 min after administration were calculated with respect to the values of each individual before administration. Changes in blood pressure and heart rate before and after administration of the test compound were evaluated.

cynomolgus monkeys = assay: Effects on cardiac function in anesthetized cynomolgus monkeys; type: in vivo, cynomolgus monkey; details: continuous intravenous 30 min
Description: Cynomolgus monkeys were anesthetized with pentobarbital (at an initial dose of 20-30 mg/kg by intravenous administration; at a dose of 4-5 mg/kg/hr by intravenous continuous administration). A tracheal tube was inserted and experiments were carried out under artificial respiration (fresh air+pure oxygen, ventilatory volume: 10-15 mL/kg, ventilation frequency: 10-15 times/min). In the right lying position, the left thorax was opened between the fourth and fifth intercostal spaces. The […] (the origin of the left anterior descending artery or circumflex branch) and the origin of the ascending main artery were peeled off and transducers for blood flow measurement were located there. The blood flow rates were measured using an electronic blood flowmeter or an ultrasonic blood flowmeter. The blood pressures were measured using a pressure transducer in a state where a catheter was inserted into the right femoral artery. The left ventricular internal pressure was measured in a state where a catheter was inserted from the left carotid artery into the left ventricle. The electrocardiogram was measured using needle electrodes installed in the right armpit and the left thorax. After catheters for administration were inserted into the right and left cephalic veins and femoral veins, the test compound, pentobarbital (under anesthesia) or an aqueous solution (SOLITA T3 containing 1.2% NaHCO3) were administered therethrough. The test compound was continuously administered intravenously 30 min using a continuous infusion system. The blood pressure, left ventricular internal pressure, blood flow rate through the coronary artery and electrocardiogram data were simultaneously inputted to a PowerLab system (LabChart6, AD instruments) to measure/calculate average blood pressure, heart rate, average blood flow rate through the coronary artery, beat volume, stroke volume (beat volume/heart rate), maximum first deviation of the left ventricular internal pressure, total peripheral blood vessel resistance (average blood pressure/beat volume), cardiac performance (average blood pressure x beat volume) and double product (systolic arterial pressure x heart rate), which is indicative of myocardial oxygen consumption.
The averages of all evaluation parameters for 1 min were obtained before administration, immediately after administration, and 10 min, 20 min and 30 min after administration, and changes of the averages relative to the value measured before administration which is defined as 100% were calculated.

[2] = tested on: urinary excretion dysfunction models; assay: Urinary excretion dysfunction models, maximal urinary flow rate; type: in vivo; details: 60 ng/kg/h continuous intravenous, cynomolgus monkey urinary excretion dysfunction model
From the text: Urinary excretion dysfunction models were constructed in accordance with the following procedure. After anesthesia of cynomolgus monkeys, the region from the suprapubic area to the abdominal area was shaved, followed by fixing in a dorsal position. The shaved region was disinfected and the four legs were fixed. Using an electrosurgical knife, the skin region from the suprapubic area to the umbilical area and the peritoneal membrane were sequentially incised, followed by damage to the pelvic nerve and removal of the uterus. After the surgical operation, viccillin-containing physiological saline was added dropwise to the incised area. The peritoneal membrane and skin of the incised area were sutured with silk threads and disinfected. Viccillin was administered for 7 consecutive days after surgery. Meloxicam was administered once daily for 7 consecutive days to manage pain in the perioperative period.
The cynomolgus monkeys were seated on monkey chairs, followed by retention of the hands and legs with strings. Injectable water was administered orally, and physiological saline and the test compound (60 ng/kg/h) were continuously administered intravenously to allow urination freely. The maximal urinary flow rate was measured using a urine weighing sensor.

[3] = tested on: spontaneously hypertensive rats; assay: Blood pressure and heart rate measurement in hypertensive rats; type: in vivo, rat; details: continuous intravenous
Description: The blood pressures and heart rates of male spontaneously hypertensive rats were measured. On the day of measurement, indwelling of catheters for blood pressure•heart rate measurement and subject substance administration was carried out under anesthesia with ether. The back of the neck of each rat was incised, a feeding catheter (Atom Medical Corporation) filled with heparinized physiological saline was introduced from the back of the neck; the catheter was inserted into the common carotid artery and internal jugular vein; and the surgical incision was closed. The measurements were conducted in a Bollmann cage under the conscious state and evaluations were carried out after confirming that the individual parameters were stabilized. After confirming the stabilization of blood pressure and heart rate, the test compound was continuously administered intravenously at a flow rate of 5 mL/kg/h for 30 min.
The catheter drawn from the back of the neck was connected to a pressure transducer (DX-200, NIHON KOHDEN CORP.), and the blood pressures and heart rates were measured using a blood pressure amplifier (Gould instrument). The blood pressures and heart rates were recorded on recording paper using a recorder (LINEARCORDER WR3320, GRAPHTEC). The blood pressures and heart rates were converted into values on the recording paper before administration and 2.5, 5, 10, 15, 30, 45 and 60 min after administration. For each individual, rates of increase and decrease in the parameters were evaluated relative to the value before administration (value at 0 min).

[4] = tested on: human lyophilized liver cells; assay: Stability evaluation in lyophilized liver cells; type: in vitro ADME; details: 37° C.
Description: KHEM5100 medium which includes human lyophilized liver cells after dissolving (final concentration of living cells: 1×10^6 cells/mL) and the test compound (acetonitrile or methanol solution, final concentration≦1%) was incubated at 37° C. Immediately after reaction and with the passage of reaction time, some portions were sampled from the medium. The concentrations of the test compound in the samples were measured by LC/MS/MS. The residual rate of the test compound relative to immediately after reaction was calculated by the following equation: Residual rate=the concentration of the test compound in the sample after reaction/the concentration of the test compound in the sample immediately after reaction×100(%) The residual rates were plotted on a single logarithmic scale against reaction time to calculate loss rate constants. The test was repeated (n=2), and the obtained values were averaged.

male rats = assay: Digestive symptoms after repeated oral administration; type: in vivo, rat; details: 0.1 mg/kg oral, repeated for 4 days
Description: Using male rats, aged 6 weeks, general states of the rats were observed after repeating oral administration of the test compound at a dose of 0.1 mg/kg for 4 days. To a control, injectable water which is a medium was administered.

[5] = Parallel artificial membrane permeability assay (PAMPA); type: in vitro ADME; details: sum of pH 5.0, 6.2 and 7.4, 25° C., read-out: membrane permeability coefficients (PAMPA(SUM))
Description: The permeability of the drugs through artificial membranes was measured by parallel artificial membrane permeability assay (PAMPA) under the following conditions. For the measurements, a PAMPA system (pION) was used. The membrane permeability was evaluated by measuring membrane permeability coefficients at three pH values and summing the values (PAMPA(SUM)(cm/sec)).
Lipid membrane: GIT-0 (pION)
Incubation temperature: 25° C.
Donor: 5% DMSO-containing buffer
Compound concentration: 50 μmol/L

SMILES: C=C(C)CC[C@](C)(O)C/C=C/[C@H]1CCC(=O)[C@@H]1CCSc1nc(C(=O)O)cs1 [Comparative compound A, 2-[(2-{(1R,2R)-2-[(1E,4S)-4-hydroxy-4,7-dimethyl-1,7-octadien-1-yl]-5-oxocyclopentyl}ethyl)thio]-1,3-thiazole-4-carboxylic acid]
- bladder capacity [1]: significant decrease
- effect on the blood pressure (normal rats): tendency to increase
- increase in blood pressure (normal rats; 1 mg/kg): about 10%

SMILES: CCCCC[C@](C)(O)C/C=C/[C@H]1CCC(=O)[C@@H]1CCSc1nc(C(=O)O)cs1 [Comparative compound B, 2-[(2-{(1R,2R)-2-[(1E,4S)-4-hydroxy-4-methyl-1-nonen-1-yl]-5-oxocyclopentyl}ethyl)thio]-1,3-thiazole-4-carboxylic acid, reference compound]
- effect on the cardiac functions (cynomolgus monkeys): inhibitory effect
- improvement in maximal urinary flow rate over the vehicle group [2]: 27%
- effect on the blood pressure (normal rats): tendency to decrease
- increase in heart rate (normal rats): about 20%
- reduction of blood pressure ([3]; 100 ng/kg/min): about 10%
- reduction of blood pressure ([3]; 300 ng/kg/min): about 25%
- Residual rate ([4]; Reaction time 0 h): 100%
- Residual rate ([4]; Reaction time 0.5 h): 91.5%
- Residual rate ([4]; Reaction time 1 h): 78.1%
- Residual rate ([4]; Reaction time 1 h, listed as comparative compound B): ≤ 80%
- Residual rate ([4]; Reaction time 2 h): 62.3%
- Residual rate ([4]; Reaction time 2 h, listed as comparative compound B): about 60%

SMILES: C[C@@](O)(C/C=C/[C@H]1CCC(=O)[C@@H]1CCSc1nc(C(=O)O)cs1)CCCC(F)(F)F [Comparative compound C, 2-[(2-{(1R,5R)-2-oxo-5-[(1E,4S)-8,8,8-trifluoro-4-hydroxy-4-methyl-1-octenyl]cyclopentyl}ethyl)thio]-1,3-thiazole-4-carboxylic acid]
- digestive symptoms such as soft feces (male rats): soft feces were observed
- effect on the blood pressure (normal rats): tendency to decrease
- increase in heart rate (normal rats): about 20%

SMILES: C[C@@](O)(C/C=C/[C@H]1COC(=O)N1CCSc1nc(C(=O)O)cs1)CCCC(F)(F)F [Comparative compound E, 2-[(2-{(4S)-2-oxo-4-[(1E,4S)-8,8,8-trifluoro-4-hydroxy-4-methyl-1-octenyl]-1,3-oxazolidin-3-yl}ethyl)sulfanyl]-1,3-thiazole-4-carboxylic acid, reference compound]
- Papp at 4 hr, 50 μmol/L [5]: 0.6 ×10⁻⁶ cm/s
